Measured values published in PubChem BioAssay AID248 (DTP/NCI, 2004).
Where “and” joins values, the source holds several entries; their conditions need not be identical. Identical values can stand only once. Toxic doses and inconclusive results are not listed.

System: L1210 leukemia ip in BDF1 mice, survival T/C
Assay: NCI In Vivo Anticancer Drug Screen. Data for tumor model L1210 Leukemia (intraperitoneal) in B6D2F1 (BDF1) mice
Conditions: endpoint: mean survival time, higher = longer survival
Summary of the method: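 Antitumor effect is assessed in tumor-bearing animals. Survival in the compound arm is compared with a vehicle-dosed control arm and expressed as their quotient.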

[1] = dose: 100.0 mg/kg/injection, schedule: Q01DX001 (ip), vehicle: Klucel (hydroxypropylcellulose) (HPC)
[2] = dose: 200.0 mg/kg/injection, schedule: Q01DX001 (ip), vehicle: Klucel (hydroxypropylcellulose) (HPC)
[3] = dose: 400.0 mg/kg/injection, schedule: Q01DX001 (ip), vehicle: Klucel (hydroxypropylcellulose) (HPC)
[4] = dose: 200.0 mg/kg/injection, schedule: Q04DX002 (ip), vehicle: saline with Tween-80
[5] = dose: 400.0 mg/kg/injection, schedule: Q04DX002 (ip), vehicle: saline with Tween-80
[6] = dose: 400.0 mg/kg/injection, schedule: Q01DX001 (ip), vehicle: saline

## O=P1(NCCCl)OCCC(OO)N1CCCl (stereo unspecified)
dose: 15.0 mg/kg/injection, schedule: Q01DX001 (ip), vehicle: Klucel (hydroxypropylcellulose) (HPC)
  T/C: 155 % of control
dose: 23.0 mg/kg/injection, schedule: Q01DX001 (ip), vehicle: Klucel (hydroxypropylcellulose) (HPC)
  T/C: 158 % of control
dose: 34.0 mg/kg/injection, schedule: Q01DX001 (ip), vehicle: Klucel (hydroxypropylcellulose) (HPC)
  T/C: 175 % of control
dose: 50.0 mg/kg/injection, schedule: Q01DX001 (ip), vehicle: Klucel (hydroxypropylcellulose) (HPC)
  T/C: 188 % of control and 196 % of control
dose: 75.0 mg/kg/injection, schedule: Q01DX001 (ip), vehicle: Klucel (hydroxypropylcellulose) (HPC)
  T/C: 276 % of control
[1]
  T/C: 182 % of control
[2]
  T/C: 196 % of control
[3]
  T/C: 95 % of control

## O=C(NC(=S)Nc1cc(C(F)(F)F)ccc1Cl)c1cccc([N+](=O)[O-])c1
dose: 100.0 mg/kg/injection, schedule: Q01DX001 (ip), vehicle: saline with Tween-80
  T/C: 105 % of control
dose: 100.0 mg/kg/injection, schedule: Q01DX009 (ip), vehicle: saline with Tween-80
  T/C: 96 % of control and 108 % of control
dose: 100.0 mg/kg/injection, schedule: Q04DX003 (ip), vehicle: saline with Tween-80
  T/C: 99 % of control
dose: 200.0 mg/kg/injection, schedule: Q01DX001 (ip), vehicle: saline with Tween-80
  T/C: 103 % of control
dose: 200.0 mg/kg/injection, schedule: Q01DX009 (ip), vehicle: saline with Tween-80
  T/C: 92 % of control and 99 % of control
[4]
  T/C: 98 % of control and 118 % of control
dose: 200.0 mg/kg/injection, schedule: Q04DX003 (ip), vehicle: saline with Tween-80
  T/C: 103 % of control
dose: 400.0 mg/kg/injection, schedule: Q01DX001 (ip), vehicle: saline with Tween-80
  T/C: 87 % of control
dose: 400.0 mg/kg/injection, schedule: Q01DX009 (ip), vehicle: saline with Tween-80
  T/C: 92 % of control and 94 % of control
[5]
  T/C: 95 % of control and 102 % of control
dose: 400.0 mg/kg/injection, schedule: Q04DX003 (ip), vehicle: saline with Tween-80
  T/C: 89 % of control

## CNC(=O)Oc1ccccc1C(C)C
dose: 100.0 mg/kg/injection, schedule: Q04DX002 (ip), vehicle: Klucel (hydroxypropylcellulose) (HPC)
  T/C: 91 % of control
dose: 200.0 mg/kg/injection, schedule: Q04DX002 (ip), vehicle: Klucel (hydroxypropylcellulose) (HPC)
  T/C: 94 % of control
dose: 400.0 mg/kg/injection, schedule: Q04DX002 (ip), vehicle: Klucel (hydroxypropylcellulose) (HPC)
  T/C: 95 % of control and 98 % of control

## CC(C)(C)NCC1CCCC1
dose: 20.0 mg/kg/injection, schedule: Q04DX003 (ip), vehicle: saline
  T/C: 109 % of control
dose: 40.0 mg/kg/injection, schedule: Q04DX003 (ip), vehicle: saline
  T/C: 115 % of control
dose: 80.0 mg/kg/injection, schedule: Q04DX003 (ip), vehicle: saline
  T/C: 111 % of control

## N#CCCC(C#N)(C#N)CCC#N
dose: 175.0 mg/kg/injection, schedule: Q01DX001 (ip), vehicle: saline
  T/C: 97 % of control
dose: 265.0 mg/kg/injection, schedule: Q01DX001 (ip), vehicle: saline
  T/C: 100 % of control
[6]
  T/C: 96 % of control
dose: 600.0 mg/kg/injection, schedule: Q01DX001 (ip), vehicle: saline
  T/C: 91 % of control

## CCc1ccc(NC(=O)Nc2ccc(Cl)cc2)cc1
dose: 100.0 mg/kg/injection, schedule: Q01DX009 (ip), vehicle: gum acacia
  T/C: 92 % of control
dose: 100.0 mg/kg/injection, schedule: Q04DX003 (ip), vehicle: gum acacia
  T/C: 92 % of control
dose: 200.0 mg/kg/injection, schedule: Q01DX009 (ip), vehicle: gum acacia
  T/C: 89 % of control
dose: 200.0 mg/kg/injection, schedule: Q04DX003 (ip), vehicle: gum acacia
  T/C: 92 % of control
dose: 400.0 mg/kg/injection, schedule: Q01DX009 (ip), vehicle: gum acacia
  T/C: 94 % of control
dose: 400.0 mg/kg/injection, schedule: Q04DX003 (ip), vehicle: gum acacia
  T/C: 93 % of control

## O=C(CNC(=O)c1ccc(Cl)cc1Cl)N/N=C/c1cccc([N+](=O)[O-])c1
dose: 12.5 mg/kg/injection, schedule: Q01DX009 (ip), vehicle: saline with Tween-80
  T/C: 96 % of control
dose: 50.0 mg/kg/injection, schedule: Q01DX009 (ip), vehicle: saline with Tween-80
  T/C: 89 % of control

## C=C(Br)CNC(=O)NN1CCOCC1
[1]
  T/C: 115 % of control
dose: 100.0 mg/kg/injection, schedule: Q04DX003 (ip), vehicle: Klucel (hydroxypropylcellulose) (HPC)
  T/C: 95 % of control
[2]
  T/C: 111 % of control
dose: 200.0 mg/kg/injection, schedule: Q04DX003 (ip), vehicle: Klucel (hydroxypropylcellulose) (HPC)
  T/C: 98 % of control
[3]
  T/C: 102 % of control
dose: 400.0 mg/kg/injection, schedule: Q04DX003 (ip), vehicle: Klucel (hydroxypropylcellulose) (HPC)
  T/C: 97 % of control

## C=CCNC(=S)NCc1cccc2ccccc12
dose: 100.0 mg/kg/injection, schedule: Q01DX009 (ip), vehicle: Klucel (hydroxypropylcellulose) (HPC)
  T/C: 98 % of control
dose: 200.0 mg/kg/injection, schedule: Q01DX009 (ip), vehicle: Klucel (hydroxypropylcellulose) (HPC)
  T/C: 111 % of control
dose: 400.0 mg/kg/injection, schedule: Q01DX009 (ip), vehicle: Klucel (hydroxypropylcellulose) (HPC)
  T/C: 88 % of control

## O=CC1=C(Cl)c2ccccc2CC1
dose: 12.5 mg/kg/injection, schedule: Q04DX003 (ip), vehicle: acetone
  T/C: 98 % of control

## CC(=O)Nc1ccc(/C=N/N2CCN(/N=C/c3ccc(NC(C)=O)cc3)CC2)cc1
dose: 100.0 mg/kg/injection, schedule: Q01DX001 (ip), vehicle: saline
  T/C: 86 % of control
dose: 200.0 mg/kg/injection, schedule: Q01DX001 (ip), vehicle: saline
  T/C: 96 % of control
[6]
  T/C: 92 % of control

## CO[C@H](C)[C@](O)(C(=O)OCC1=CCN2CC[C@@H](O)[C@H]12)C(C)C
dose: 65.0 mg/kg/injection, schedule: Q01DX009 (ip), vehicle: saline
  T/C: 95 % of control and 109 % of control
dose: 75.0 mg/kg/injection, schedule: Q01DX001 (ip), vehicle: acetone
  T/C: 106 % of control
dose: 100.0 mg/kg/injection, schedule: Q01DX009 (ip), vehicle: saline
  T/C: 95 % of control and 105 % of control
dose: 150.0 mg/kg/injection, schedule: Q01DX001 (ip), vehicle: acetone
  T/C: 103 % of control
dose: 150.0 mg/kg/injection, schedule: Q01DX009 (ip), vehicle: saline
  T/C: 94 % of control
dose: 300.0 mg/kg/injection, schedule: Q01DX001 (ip), vehicle: acetone
  T/C: 106 % of control

## CCN(CC)CCCNc1ncnc2c1C(c1ccccc1)c1ccccc1-2 (stereo unspecified)
dose: 5.0 mg/kg/injection, schedule: Q01DX001 (ip), vehicle: saline
  T/C: 98 % of control
dose: 10.0 mg/kg/injection, schedule: Q01DX001 (ip), vehicle: saline
  T/C: 96 % of control
dose: 20.0 mg/kg/injection, schedule: Q01DX001 (ip), vehicle: saline
  T/C: 93 % of control
dose: 40.0 mg/kg/injection, schedule: Q01DX001 (ip), vehicle: saline
  T/C: 93 % of control

## CCCCCCC#CC(=O)OCCCCC
dose: 100.0 mg/kg/injection, schedule: Q04DX002 (ip), vehicle: saline with Tween-80
  T/C: 96 % of control
[4]
  T/C: 100 % of control
[5]
  T/C: 96 % of control

## CN(C)CCOC(=O)c1cccc(CCBr)c1
dose: 87.5 mg/kg/injection, schedule: Q01DX009 (ip), vehicle: saline
  T/C: 103 % of control
dose: 175.0 mg/kg/injection, schedule: Q01DX009 (ip), vehicle: saline
  T/C: 92 % of control
dose: 350.0 mg/kg/injection, schedule: Q01DX009 (ip), vehicle: saline
  T/C: 104 % of control

## COc1ccc(C(C#N)N2CCCC2)cc1 (stereo unspecified)
dose: 6.25 mg/kg/injection, schedule: Q01DX009 (ip), vehicle: other
  T/C: 95 % of control
dose: 6.25 mg/kg/injection, schedule: Q04DX003 (ip), vehicle: other
  T/C: 98 % of control
dose: 12.5 mg/kg/injection, schedule: Q01DX009 (ip), vehicle: other
  T/C: 95 % of control
dose: 12.5 mg/kg/injection, schedule: Q04DX003 (ip), vehicle: other
  T/C: 104 % of control
dose: 25.0 mg/kg/injection, schedule: Q04DX003 (ip), vehicle: other
  T/C: 96 % of control

## O=NN(CCCl)C(=O)Nc1ccc(F)cc1
dose: 9.37 mg/kg/injection, schedule: Q01DX001 (ip), vehicle: carboxymethylcellulose (CMC)
  T/C: 150 % of control
dose: 12.5 mg/kg/injection, schedule: Q01DX001 (ip), vehicle: carboxymethylcellulose (CMC)
  T/C: 162 % of control
dose: 18.75 mg/kg/injection, schedule: Q01DX001 (ip), vehicle: carboxymethylcellulose (CMC)
  T/C: 171 % of control
dose: 25.0 mg/kg/injection, schedule: Q01DX001 (ip), vehicle: carboxymethylcellulose (CMC)
  T/C: 253 % of control
dose: 37.5 mg/kg/injection, schedule: Q01DX001 (ip), vehicle: carboxymethylcellulose (CMC)
  T/C: 171 % of control
